Measured values reported in US20240075005A1 (LIGALLI BV, priority 2021, published 2024).
“And” between values parts separate entries of the source, which are not always exact repeats. Identical values can stand only once.

Assay: clinical
Assay type: in vivo, human (female subjects)
Description: This trial investigated the feasibility of pulsed intra-vaginal delivery of oxybutynin and explored systemic exposure after application via the MedRing device.
The trial included female subjects of childbearing potential (women of childbearing potential, WOCBP) aged between 18 and 45 years (inclusive) and female postmenopausal subjects aged between 50 and 69 years (inclusive); Postmenopausal status is defined as age≥50 years and having >12 months amenorrhoea in the absence of hormonal therapy that may cause amenorrhoea.
Subjects began a 4-hour pre-dose fasting period before arriving to the clinic until 2 hours post-dose. Upon arrival, the subjects underwent pre-dose measurements to re-confirm eligibility for the study and to perform baseline measurements. The MedRing was inserted intra-vaginally by medically trained personnel. Water was allowed ad libitum. Subjects underwent blood sampling throughout the day. The MedRing was removed by medical study personnel 2 hours post dose in the first cohort. The MedRing was removed by medical personnel 6 hours post dose in the second cohort. The subjects went home approximately 8 hours post dose. The following day, the subjects of the second cohort returned to the clinic for an ambulant blood sample.
Plasma samples were also used for assessment of the concentrations of the metabolite, N-desethyloxybutynin.

| AUC(0-inf) (female, human, in vivo, 3 mg) [ng·h/mL] | Cmax (female, human, in vivo, 3 mg) [ng/mL] | Tmax (female, human, in vivo, 3 mg) [h] | half-life (female, human, in vivo, 3 mg) [h] | t1/2, mean (±SD) (female, human, in vivo, 3 mg) | tmax, median (min-max) (female, human, in vivo, 3 mg) | plasma levels after 22 hours (female, human, in vivo, 22 h) | Compound | Area under the concentration-time curve to infinity (AUCinf) in plasma, mean (±SD) (3 mg oxybutynin HCl intravaginal via MedRing) | t1/2, mean (±SD) (3 mg oxybutynin HCl intravaginal via MedRing, plasma) [h] | tmax, median (min-max) (3 mg oxybutynin HCl intravaginal via MedRing, post dose, plasma) | Cmax in plasma, mean (±standard deviation) (3 mg oxybutynin HCl intravaginal via MedRing, single dose, 8 female subjects) [ng/mL] | plasma concentrations relative to known safety window (intravaginal via MedRing) | plasma levels after 22 hours (second cohort (MedRing in situ 6 hours), 22-hour sample) |
| --- | --- | --- | --- | --- | --- | --- | --- | --- | --- | --- | --- | --- | --- |
| 34.9 | 5.4 | 2 | 8.5 | 8.5 (±3.5) hours | 2 (1-5) hours | found in all 4 subjects | CCN(CC)CC#CCOC(=O)C(O)(c1ccccc1)C1CCCCC1 (stereo not shown) [oxybutynin] | – | – | – | – | – | – |
| – | – | – | – | – | – | – | CCNCC#CCOC(=O)C(O)(c1ccccc1)C1CCCCC1 (stereo not shown) [N-desethyloxybutynin] | 51.1 (±43.1) | 7.7 | 4 hours and 4 (3-5) hours | 3.9 | well within the known safety window | found in all 4 subjects |
